Data from patent publication US20230242915A1, “SMALL INTERFERING DEOXYRIBONUCLEIC ACID (SIDNA) AGAINST METALLO-BETA LACTAMASE GENE” (priority 2021, published 2023).
{FAM} = 6-FAM fluorescein dye; {TAMRA} = TAMRA dye

How the values were obtained:
blaIMP-1 gene = experiment: blaIMP-1 mRNA level by real time RT-PCR in Pseudomonas aeruginosa transformed with siDNA; format: cell-based; details: for Fold change of blaIMP-1 mRNA: 2-ΔΔCt, untreated = about 1
Experimental: In this example, the synthesized siDNA in “Example 1” (comprising exemplary sense and antisense strands set forth in SEQ ID NO: 1 and 2, respectively) was cloned into Pseudomonas aeruginosa bacteria harboring an exemplary blaIMP-1 gene (imipenem/meropenem resistance gene). To this end, first, competent Pseudomonas aeruginosa was prepared and stored at −70° C. to be used in further experiments. Competent cells may refer to microbial cells capable of taking up foreign nucleic acid molecules from their surroundings through a process known as transformation. In order to transfer/clone the prepared siDNA into the competent Pseudomonas aeruginosa bacteria, 100 μL of an exemplary siDNA (either being coated with chitosan polymer or being bare—i.e., being uncoated) with a concentration of about 1% w/v was added to 60 μL of the competent Pseudomonas aeruginosa culture in Lysogeny Broth (LB) medium, gently mixed, and kept at 0° C. for 45 min. Then, the mixture of an exemplary siDNA (either being bare or coated with chitosan polymer) with the culture of competent Pseudomonas aeruginosa was incubated at 37° C., for 20 sec, and immediately placed on ice. Then, 800 μL of Super Optimal broth (SOC) medium was added to the mixture of an exemplary siDNA (either being bare or coated with chitosan polymer) with the culture of competent Pseudomonas aeruginosa and incubated at 37° C., in a shaker incubator, for 24-30 h.
In this example, the effect of an exemplary siDNA—which was cloned into Pseudomonas aeruginosa bacteria in “Example 2”—on the expression of an exemplary blaIMP-1 gene was evaluated. In other words, the level of blaIMP-1 mRNA (messenger RNA) was measured in the transformed Pseudomonas aeruginosa bacteria with an exemplary siDNA in “Example 2”. For this purpose, the total RNA of an exemplary transformed Pseudomonas aeruginosa and an exemplary untreated Pseudomonas aeruginosa (as negative control) was extracted using a commercial RNA extraction kit, followed by conducting a real time RT-PCR (reverse transcriptase polymerase chain reaction) to determine the level of blaIMP-1 mRNA. In this example, 2-ΔΔCt method was used to determine differences in normalized expression of an exemplary blaIMP-1 gene (at transcription level) induced by an exemplary siDNA. FIG. 2 illustrates RNA expression profile 200 in an exemplary transformed Pseudomonas aeruginosa with an exemplary siDNA (measured by real time RT-PCR), consistent with one or more exemplary embodiments of the present disclosure. As shown in RNA expression profile 200, Group A refers to an exemplary transformed Pseudomonas aeruginosa bacteria grown for 4 h in the presence of imipenem, Group B refers to an exemplary transformed Pseudomonas aeruginosa bacteria grown for 18 h in the presence of imipenem, and Group C refers to an exemplary transformed Pseudomonas aeruginosa bacteria grown for 36 h in the presence of imipenem. […] Fold change of an exemplary blaIMP-1 mRNA in untreated Pseudomonas aeruginosa, Group A, Group B, and Group C—shown in RNA expression profile 200—were about 1, 0.088, 0.020, and 0.27, respectively.

[1] = test system: Pseudomonas aeruginosa harboring blaIMP-1 gene; experiment: imipenem MIC assay (broth dilution) on transformed Pseudomonas aeruginosa; format: cell-based
Experimental: In this example, the synthesized siDNA in “Example 1” (comprising exemplary sense and antisense strands set forth in SEQ ID NO: 1 and 2, respectively) was cloned into Pseudomonas aeruginosa bacteria harboring an exemplary blaIMP-1 gene (imipenem/meropenem resistance gene). To this end, first, competent Pseudomonas aeruginosa was prepared and stored at −70° C. to be used in further experiments. Competent cells may refer to microbial cells capable of taking up foreign nucleic acid molecules from their surroundings through a process known as transformation. In order to transfer/clone the prepared siDNA into the competent Pseudomonas aeruginosa bacteria, 100 μL of an exemplary siDNA (either being coated with chitosan polymer or being bare—i.e., being uncoated) with a concentration of about 1% w/v was added to 60 μL of the competent Pseudomonas aeruginosa culture in Lysogeny Broth (LB) medium, gently mixed, and kept at 0° C. for 45 min. Then, the mixture of an exemplary siDNA (either being bare or coated with chitosan polymer) with the culture of competent Pseudomonas aeruginosa was incubated at 37° C., for 20 sec, and immediately placed on ice. […]
On the other hand, to further confirm success of an exemplary siDNA in silencing an exemplary blaIMP-1 gene in Pseudomonas aeruginosa, minimum inhibitory concentration (MIC) of imipenem was determined in an exemplary transformed Pseudomonas aeruginosa. To this end, MICs of imipenem that may inhibit the growth of an exemplary transformed Pseudomonas aeruginosa (with an exemplary siDNA) was determined after 1-4 h, 2-18 h, and 3-36 h, by broth dilution method performed in a 96-well microtiter plate. […]
To conduct an exemplary MIC assay, bacterial culture grown to log phase was adjusted to about 5×10^5 (cells/mL) in Muller-Hinton broth. Then, the antimicrobial effect of imipenem on an exemplary transformed Pseudomonas aeruginosa and an exemplary untreated Pseudomonas aeruginosa was determined by measuring turbidity of bacterial growth in each well, using a microtiter plate reader. […]

[2] = test system: imipenem-resistant Pseudomonas aeruginosa; experiment: chronic Pseudomonas aeruginosa lung infection model, lung histology; format: in vivo; details: infected mice, imipenem in combination with siDNA (with chitosan), 3 days of treatment; compared with FIG. 5A mouse
Experimental: In this example, the effect of an exemplary siDNA on an exemplary imipenem-resistant Pseudomonas aeruginosa was assessed in 40 mice with chronic Pseudomonas aeruginosa lung infection. For this purpose, a 1% w/v concentration of chitosan polymer was prepared, followed by preparing two different ratios of chitosan 1% w/v to an exemplary siDNA—in phosphate buffered saline (PBS)—including an exemplary 1:1 ration and an exemplary 0.5:1 ratio.
A chronic Pseudomonas aeruginosa lung infection model (using imipenem-resistant Pseudomonas aeruginosa) was established in 40 mice (25-30 g). Exemplary mice were randomly divided into three groups (each group comprising 10 mice) including: i) an exemplary control group that only received imipenem after acquiring chronic infection, ii) an exemplary first group that received imipenem in combination with an exemplary siDNA (ratio 0.5:1 of chitosan 1% w/v to an exemplary siDNA) after acquiring chronic infection, and iii) an exemplary second group that received imipenem in combination with an exemplary siDNA (ratio 1:1 of chitosan 1% w/v to an exemplary siDNA) after acquiring chronic infection. […] The level of tissue damage in an exemplary control group, first group, and second group was observed and analyzed by light microscopy. […]

siDNA: Annealed duplex of sense strand SEQ ID NO: 1 and antisense strand SEQ ID NO: 2, each 5′ 6-FAM and 3′ TAMARA, targeting blaIMP-1 gene (sense GCCGACATCGCCTTCGGCGTTTATGATT; antisense AACGCGAGAAAGTATGAACCTAGCACTT; DNA, 5' {FAM}, 3' {TAMRA}, backbone and methylation of C not given here)
decrease of gene expression compared to untreated Pseudomonas aeruginosa (blaIMP-1 gene; Group A, 4 h in the presence of imipenem): 11.36 folds
Fold change of blaIMP-1 mRNA (blaIMP-1 gene; Group A: transformed bacteria grown 4 h in the presence of imipenem): ~0.088
decrease of gene expression compared to untreated Pseudomonas aeruginosa (blaIMP-1 gene; Group B, 18 h in the presence of imipenem): 50 folds
Fold change of blaIMP-1 mRNA (blaIMP-1 gene; Group B: transformed bacteria grown 18 h in the presence of imipenem): ~0.020
decrease of gene expression compared to untreated Pseudomonas aeruginosa (blaIMP-1 gene; Group C, 36 h in the presence of imipenem): 3.7 folds
Fold change of blaIMP-1 mRNA (blaIMP-1 gene; Group C: transformed bacteria grown 36 h in the presence of imipenem): ~0.27
MIC of imipenem in siDNA-transformed Pseudomonas aeruginosa ([1]; Group A, 4 h, Muller-Hinton broth): 2 µg/mL
MIC of imipenem in siDNA-transformed Pseudomonas aeruginosa ([1]; Group B, 18 h, Muller-Hinton broth): 4 µg/mL
MIC of imipenem in siDNA-transformed Pseudomonas aeruginosa ([1]; Group C, 36 h, similar to untreated negative control): 32 µg/mL
edema and tissue damage in lung tissue (hematoxylin and eosin histology) [2]: significantly less edema and tissue damage
